Results reported in patent EP4563573A1, “COMPOUND, AND PREPARATION METHOD THEREFOR AND USE THEREOF IN PREPARATION OF SEH INHIBITOR AND PPARS AGONIST” (Shenyang Pharmaceutical University, priority 2023, dated 2024).
pEC50, pIC50: −log10 of the molar value. Like-named read-outs stand apart in the source and are kept apart here.

Tests used:
chronic granuloma model = conditions: rats, 20 mg/kg oral gavage once a day for 7 days (medium-dose; celecoxib group)
Method: After the animals were anesthetized by isoflurane inhalation, cotton balls of about 50 mg were buried in the groin of the rats on both sides. The surgical procedure was strictly conducted aseptically. Penicillin was injected intraperitoneally for anti-inflammatory treatment after surgery. Before administration, different drugs were prepared into a concentration of 0.5 mg/mL with pure water in each group, and different test substances were administered by oral gavage at 10 mL/kg, 1 time a day for consecutive 7 days, while the model control group was administrated with an equal volume of pure water. After the last administration, the mice were anesthetized by isoflurane inhalation and then bled, and the cotton ball granuloma was removed and weighed to calculate the degree of swelling (wet weight of cotton ball granuloma - dry weight of cotton ball).
The significant figures of the test data were rounded off and statistical analysis was conducted in accordance with SOP. The software used for statistics was SPSS22.0. Measurement data were expressed as Mean ± standard deviation (x ± s), and Leven's test was used to test normality and homogeneity of variance. If there was no statistical significance (P>0.05), statistical analysis was done using one-factor ANOVA. If ANOVA was statistically significant (P≤0.05), LSD test (parametric method) was used for comparative analysis. […]

[1] = tested on: CFA-induced rheumatoid arthritis model
Method: Except for the normal group, the animals in the other groups were injected with 25 µL/mouse of CFA at the bottom of right feet. Different drugs were prepared with pure water to the corresponding concentrations before administration. 30 min after modeling, different test substances were administrated to the animals in each group by oral gavage at 20 mL/kg, 1 time on the same day. The normal control group and the model control group were given the same volume of pure water. […] On the 20th day after modeling, all model animals were regrouped according to the joint index score and administrated with 20 mL/kg by oral gavage 1 time daily for consecutive 7 days. The joint index score of each group was determined on the 3rd and 7th days after administration, and the pain threshold of the animals was tested with a hot plate instrument after the last administration.
The significant figures of the test data were rounded off and statistical analysis was conducted in accordance with SOP. The software used for statistics was SPSS22.0. Measurement data were expressed as Mean ± standard deviation (x ± s), and Leven's test was used to test normality and homogeneity of variance. If there was no statistical significance (P>0.05), statistical analysis was done using one-factor ANOVA. If ANOVA was statistically significant (P≤0.05), LSD test (parametric method) was used for comparative analysis. If variance was unequal (P≤0.05), the Kruskal-Wallis test was used. If the Kruskal-Wallis test was statistically significant (P≤0.05), Dunnett's Test (nonparametric method) was used for comparative analysis.

[2] = tested on: CFA-induced AIA mouse model; conditions: C57BL/6 mice, oral gavage
[3] = tested on: L-arginine-induced acute pancreatitis model; conditions: 5 mg/kg, n=5
Source text: Pathological changes were studied on H&E stained pancreatic sections (FIG. 17).
Specifically, panel (A) represents edema, panel (B) represents inflammatory cells (mononuclear and polymorphonuclear cells), panel (C) represents parenchymal atrophy, and panel (D) represents the total score (edema, mononuclear cell, polymorphonuclear cell, and parenchymal atrophy) (n=5 for each group) *p<0.05, **p<0.01 vs Mod.

LPS-induced sepsis model = test: LPS-induced sepsis model; assay type: in vivo, Male C57BL/6 mice; conditions: LPS 25 mg/kg i.p., administration 4 h after modeling, twice at 8 h interval, n=7
Method: The drug was administered twice, with an interval of 8 h between administrations.

murine sEH (MsEH) = biological target: T1, murine sEH (MsEH) (Mus musculus, UniProt P34914); test: biochemical
T1 sequence (P34914 1-554): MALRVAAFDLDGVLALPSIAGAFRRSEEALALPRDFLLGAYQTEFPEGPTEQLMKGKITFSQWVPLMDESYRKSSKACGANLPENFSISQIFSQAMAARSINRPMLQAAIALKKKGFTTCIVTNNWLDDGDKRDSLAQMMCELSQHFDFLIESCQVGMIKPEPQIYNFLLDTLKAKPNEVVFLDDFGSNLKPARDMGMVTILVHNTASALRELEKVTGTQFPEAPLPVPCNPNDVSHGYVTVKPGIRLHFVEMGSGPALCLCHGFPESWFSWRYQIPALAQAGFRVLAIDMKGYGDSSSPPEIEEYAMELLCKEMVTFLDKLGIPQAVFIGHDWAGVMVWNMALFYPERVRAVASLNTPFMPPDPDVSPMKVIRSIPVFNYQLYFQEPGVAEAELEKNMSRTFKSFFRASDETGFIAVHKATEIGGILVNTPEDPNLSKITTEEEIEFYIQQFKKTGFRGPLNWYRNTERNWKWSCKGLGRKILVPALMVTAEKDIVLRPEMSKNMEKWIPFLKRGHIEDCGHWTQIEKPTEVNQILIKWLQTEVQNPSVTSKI
Method: (§2) Detection principle: a specific substrate, (3-phenyl-oxy)-acetic acid cyano-(6-methoxy-naphthalen-2-yl) methyl ester, namely PHOME, is non-fluorescent but can be hydrolyzed under the action of sEH enzyme to generate a product 6-methoxy-2-naphthaldehyde. […] Based on the above principle, the inhibition rates of samples with different concentrations were calculated compared with the positive control group. The IC50 value of the compound was calculated based on the inhibition rate and concentration using SPSS 20 software.
(§3) PHOME solution: 0.79 mg PHOME was dissolved in 106 µL DMSO to obtain a 20 mM PHOME solution, which was diluted to 1/3 mM with Tris-HCl buffer when used.
(§4) sEH solution: sEH (5 mg/mL) stock solution was stored in a -80°C refrigerator and diluted to 4 µg/mL with 25 mM Tris-HCl buffer when used.
(§5) A sample powder to be tested was dissolved in DMSO to a 20 mM solution, stored in a - 20°C refrigerator for later use, and diluted with Tris-HCl buffer to the corresponding concentration when used.
(§6) Experimental design: solvent group, 100% activity group (A), inhibitor group (B), positive control group (C), as shown in Table 1.
(§7) Three replicate wells were set for each sample, and the average of the three replicate wells was the fluorescence value (F) of the compound to be tested. […] The IC50 value of the compound was calculated based on the inhibition rate and concentration using SPSS 20 software.
(§8) The activity of the compounds was evaluated using a biochemical method with [cyano-(6-methoxynaphthalen-2-yl)methyl] 2-(3-phenyloxiran-2-yl)acetate (PHOME) as a substrate using recombinant human sEH (HsEH) and murine sEH (MsEH).

PPARγ = biological target: T2, PPARγ (Homo sapiens, UniProt P37231); test: PPARγ agonist activity test (luciferase reporter gene); assay type: cell-based
T2 sequence (P37231 204-505): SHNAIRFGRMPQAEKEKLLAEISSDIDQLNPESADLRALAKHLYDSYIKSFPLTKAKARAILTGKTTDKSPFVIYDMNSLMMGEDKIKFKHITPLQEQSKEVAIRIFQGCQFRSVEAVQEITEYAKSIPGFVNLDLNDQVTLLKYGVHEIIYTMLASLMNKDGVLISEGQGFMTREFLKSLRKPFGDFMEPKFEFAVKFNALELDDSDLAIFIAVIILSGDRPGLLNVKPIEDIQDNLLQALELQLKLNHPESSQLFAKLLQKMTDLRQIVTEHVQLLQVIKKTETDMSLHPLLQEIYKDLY
Source text: • 1. PPARγ agonist activity test Detection principle: when pM-hPPAR binds to the appropriate ligand, and is activated and binds to the GAL4DNA binding site in the plasmid pB4-RES-tk-luc, thereby initiating the expression of the downstream luciferase reporter gene. The amount of luciferase is detected to determine whether the compound to be tested is a PPAR agonist. • 2.

[4] = tested on: CFA-induced AIA mouse model; test: CFA-induced AIA mouse model, intraperitoneal injection; assay type: in vivo; conditions: female KM mice, compared with celecoxib-10 mg/kg
Method: (§1) The pain threshold of AIA mice was tested by the hot plate method. […] A curve of the increase in pain threshold over time was plotted (panel (B) in FIG. 10), and the AUC value of the percentage increase in pain threshold was obtained (panel (C) in FIG. 10). […] Finally, the thickness of the paws of the AIA mouse model at different time points after compound injection was evaluated and compared with the thickness of the mouse paws before modeling, and the swelling reduction rate of the mouse paws was calculated.
as §1, with “11),” for “10),”, “11).” for “10).”

[5] = Plasma protein binding rate (equilibrium dialysis); conditions: rat
Method: The plasma protein binding rate (%PPB) of SD rats was measured by classical equilibrium dialysis apparatus.

[6] = Stability of liver microsomes; conditions: for Average concentration in microsomal buffer: Rat; for half-life: rat, microsomes
Source text: Table 5 Average concentration of SP-B07 in microsomal buffer at different time points (ng/mL)

[7] = biological target: T3, recombinant human sEH (HsEH) (Homo sapiens, UniProt P34913)
T3 sequence (P34913 1-555): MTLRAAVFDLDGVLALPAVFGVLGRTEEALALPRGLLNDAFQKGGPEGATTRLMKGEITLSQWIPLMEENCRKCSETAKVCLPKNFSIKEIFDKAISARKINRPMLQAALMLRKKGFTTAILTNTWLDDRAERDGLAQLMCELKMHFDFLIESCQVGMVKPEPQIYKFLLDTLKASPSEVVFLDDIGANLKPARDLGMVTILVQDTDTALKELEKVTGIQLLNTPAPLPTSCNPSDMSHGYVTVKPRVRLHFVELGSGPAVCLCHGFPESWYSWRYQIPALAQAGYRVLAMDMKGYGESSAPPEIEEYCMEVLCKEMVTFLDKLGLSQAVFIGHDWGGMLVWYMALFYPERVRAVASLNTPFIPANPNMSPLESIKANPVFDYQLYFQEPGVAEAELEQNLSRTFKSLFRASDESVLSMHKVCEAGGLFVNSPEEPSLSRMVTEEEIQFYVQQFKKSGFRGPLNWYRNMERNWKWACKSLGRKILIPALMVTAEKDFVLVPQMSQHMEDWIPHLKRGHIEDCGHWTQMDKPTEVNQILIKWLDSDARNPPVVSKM
Method: as §2, §3, §4, §5, §6, §7, §8

[8] = Pharmacokinetics after intravenous and oral administration
Method: Blood levels were measured within 8 hours after oral administration. […] Table 7 PK of SP-B07 after intravenous and oral administration in rats (n=3)

[9] = tested on: CD60 diet + streptozotocin-induced diabetes; test: CD60 feed + streptozotocin-induced diabetes model; assay type: in vivo, male C57BL/6 mice; conditions: SP compounds 30 and 90 mg/kg; pioglitazone 3 mg/kg
Source text: Diabetes is a chronic metabolic disease characterized by elevated blood glucose, and its incidence has been increasing over the past few decades. There is no desirable therapeutic drug at present, and the research on drugs for the treatment of diabetes and its related complications such as diabetic pain is highly urgent. […] Compared with the Control group, ****P<0.0001, ***P<0.001, **P<0.01 and *P<0.05.

[10] = 30 mg/kg oral gavage (medium-dose; celecoxib group), 0.5 h after administration
[11] = 30 mg/kg oral gavage (medium-dose; celecoxib group), 2 h after administration
[12] = 30 mg/kg oral gavage (medium-dose; celecoxib group), 4 h after administration

## Cc1ccc(-c2cc(C(F)(F)F)nn2-c2ccc(S(N)(=O)=O)cc2)cc1 [Celecoxib, celecoxib]
Chronic granuloma model
  Swelling degree: 0.9904±0.12++
[1]; 30 mg/kg group (medium-dose; celecoxib group), Before administration
  Pain threshold in acute inflammatory state: 20.7±4.2
[1]; 30 mg/kg oral gavage (medium-dose; celecoxib group), once daily for 7 days, End of administration
  Pain threshold in chronic inflammatory state: 13.7±4.6
[1]; [10]
  Acute pain threshold increase rate of mice: -35.2±29.8%
  Pain threshold in acute inflammatory state: 13.2±6.3
[1]; 30 mg/kg oral gavage (medium-dose; celecoxib group), 1 h after administration
  Acute pain threshold increase rate of mice: -52.3±55.5%
[1]; [11]
  Acute pain threshold increase rate of mice: 34.52±54.1 %
  Pain threshold in acute inflammatory state: 23.9±5.3
[1]; [12]
  Acute pain threshold increase rate of mice: -11.6±32.6 %
  Pain threshold in acute inflammatory state: 18.7±6.0
[2]
  time after administration at which the pain threshold began to rise: 30 min
[3]
  pancreatic injury histological score: 3.50±1.80

## O=C(Nc1ccc(OC(F)(F)F)c(F)c1)NC1CCC(Oc2ccc(C=C3SC(=O)NC3=O)cc2)CC1 (centres unmarked) [SP-B07, 1-((1r,4r)-4-{4-[(E)-(2,4-dioxothiazolidin-5-ylidene)methyl]phenoxy}cyclohexyl)-3-[3-fluoro-4-(trifluoromethoxy)phenyl]urea]
LPS-induced sepsis model
  increase of the survival rate: 42.8%
Murine sEH (MsEH)
  pIC50: 9.38
PPARγ
  pEC50: 5.84
PPARγ; relative to Rosiglitazone
  PPARγ (compared with Rosiglitazone, %): 19.3%
[4]
  analgesic effect (percentage increase in pain threshold, hot plate method): better than that of celecoxib
  detumescence rate on mouse paws (swelling reduction rate): superior to celecoxib
[5]
  fraction unbound: 0.0471
[6]; 0 min
  Average concentration in microsomal buffer: 100 ng/mL
[6]; 10 min
  Average concentration in microsomal buffer: 86.26 ng/mL
[6]; 60 min
  Average concentration in microsomal buffer: 58.82 ng/mL
[6]; 120 min
  Average concentration in microsomal buffer: 57.01 ng/mL
[6]; 240 min
  Average concentration in microsomal buffer: 55.61 ng/mL
[6]; 360 min
  Average concentration in microsomal buffer: 52.33 ng/mL
[6]; 720 min
  Average concentration in microsomal buffer: 43.73 ng/mL
[6]; half-life (t1/2) in rat liver microsomes, rat liver microsomes
  half-life: 5.5 h
[6]; t1/2, rat liver microsomes, table
  half-life: 5.5 h
[7]
  pIC50: 10.22
[8]; rat, in vivo, iv, 10 mg/kg
  AUC(0-inf): 16.9 µM·h
  AUC(0-t) at 8 h: 14.1 µM·h
  Cmax: 3.29 µM
  Tmax: 0.083 h
  Vd: 3.71 L/kg
  clearance: 0.79 L/h/kg
[8]; rat, in vivo, iv, 10 mg/kg, t1/2, rats, i.v. 10 mg/kg
  half-life: 1.91 h
[8]; rat, in vivo, po, 50 mg/kg
  AUC(0-inf): 17.7 µM·h
  AUC(0-t) at 8 h: 13.8 µM·h
  Cmax: 1.14 µM
  Tmax: 0.5 h
  bioavailability: 19.5%
[8]; rats, i.v. 10 mg/kg
  time at which maximum concentration was reached after intravenous injection: 2 min
[8]; rats, i.v. 10 mg/kg, 10 mg/kg
  t1/2: 3.26 h
[9]
  lowering blood glucose and improving diabetic neuropathic pain: effective
